# Results reported in ChEMBL document CHEMBL1135076, “Leishmanicidal activity of some aliphatic diamines and amino-alcohols” (Bioorg Med Chem Lett, 2002).
# Key:
# Type in all cases: functional, organism-based
# Leishmania braziliensis [1] = experiment: Tested in vitro for leishmanicidal activity against Leishmania brasiliensis (2903) at the concentration of 10 ug/mL;++ indicates 80-90% lysis of parasites
# Leishmania donovani [2] = experiment: In vitro for leishmanicidal activity against Leishmania donovani (PP75) at the concentration of 10 ug/mL.
# Leishmania donovani [3] = experiment: In vitro for leishmanicidal activity against Leishmania donovani (PP75) at the concentration of 100 ug/mL.
# Leishmania donovani [4] = experiment: Tested in vitro for leishmanicidal activity against Leishmania donovani (PP75) at the concentration of 25 ug/mL;+ indicates Less than 70% lysis of parasites
# Leishmania donovani [5] = experiment: In vitro for leishmanicidal activity against Leishmania donovani (PP75) at the concentration of 50 ug/mL.
# Leishmania amazonensis [6] = experiment: In vitro for leishmanicidal activity against Leishmania amazonensis (PH8) at the concentration of 100 ug/mL.
# Leishmania amazonensis [7] = experiment: Tested in vitro for leishmanicidal activity against Leishmania amazonensis (PH8) at the concentration of 25 ug/mL; + indicates less than 70% lysis of parasites
# Leishmania amazonensis [8] = experiment: In vitro for leishmanicidal activity against Leishmania amazonensis (PH8) at the concentration of 50 ug/mL.
# Leishmania braziliensis [9] = experiment: In vitro for leishmanicidal activity against Leishmania brasiliensis (2903) at the concentration of 100 ug/mL.
# Leishmania amazonensis [10] = experiment: In vitro for leishmanicidal activity against Leishmania amazonensis (PH8) at the concentration of 10 ug/mL.
# Leishmania braziliensis [11] = experiment: In vitro for leishmanicidal activity against Leishmania brasiliensis (2903) at the concentration of 10 ug/mL.
# Leishmania braziliensis [12] = experiment: Tested in vitro for leishmanicidal activity against Leishmania brasiliensis (2903) at the concentration of 100 ug/mL; + indicates Less than 70% lysis of parasites
# Leishmania braziliensis [13] = experiment: In vitro for leishmanicidal activity against Leishmania brasiliensis (2903) at the concentration of 50 ug/mL.
# Leishmania donovani [14] = experiment: Tested in vitro for leishmanicidal activity against Leishmania donovani (PP75) at the concentration of 10 ug/mL
# Leishmania donovani [15] = experiment: Tested in vitro for leishmanicidal activity against Leishmania donovani (PP75) at the concentration of 100 ug/mL;+ indicates Less than 70% lysis of parasites
# Leishmania donovani [16] = experiment: In vitro for leishmanicidal activity against Leishmania donovani (PP75) at the concentration of 25 ug/mL.
# Leishmania amazonensis [17] = experiment: Tested in vitro for leishmanicidal activity against Leishmania amazonensis (PH8) at the concentration of 100 ug/mL; + indicates less than 70% lysis of parasites
# Leishmania amazonensis [18] = experiment: In vitro for leishmanicidal activity against Leishmania amazonensis (PH8) at 25 ug/mL; No lysis of parasites.
# Leishmania braziliensis [19] = experiment: In vitro for leishmanicidal activity against Leishmania brasiliensis (2903) at the concentration of 25 ug/mL.
# Leishmania donovani [20] = experiment: Tested in vitro for leishmanicidal activity against Leishmania donovani (PP75) at the concentration of 50 ug/mL;++ indicates 80-90% lysis of parasites
# Leishmania braziliensis [21] = experiment: Tested in vitro for leishmanicidal activity against Leishmania brasiliensis (2903) at the concentration of 10 ug/mL;+ indicates Less than 70% lysis of parasites
# Leishmania braziliensis [22] = experiment: Tested in vitro for leishmanicidal activity against Leishmania brasiliensis (2903) at the concentration of 50 ug/mL;++ indicates 80-90% lysis of parasites
# Leishmania amazonensis [23] = experiment: Tested in vitro for leishmanicidal activity against Leishmania amazonensis (PH8) at the concentration of 50 ug/mL; ++ indicates 80-90% lysis of parasites
# Leishmania braziliensis [24] = experiment: Tested in vitro for leishmanicidal activity against Leishmania brasiliensis (2903) at the concentration of 25 ug/mL;+ indicates Less than 70% lysis of parasites
# Leishmania braziliensis [25] = experiment: Tested in vitro for leishmanicidal activity against Leishmania brasiliensis (2903) at the concentration of 25 ug/mL;++ indicates 80-90% lysis of parasites
# Leishmania donovani [26] = experiment: Tested in vitro for leishmanicidal activity against Leishmania donovani (PP75) at the concentration of 25 ug/mL;++ indicates 80-90% lysis of parasites
# Leishmania amazonensis [27] = experiment: Tested in vitro for leishmanicidal activity against Leishmania amazonensis (PH8) at the concentration of 25 ug/mL; ++ indicates 80-90% lysis of parasites
# Leishmania amazonensis [28] = experiment: Tested in vitro for leishmanicidal activity against Leishmania amazonensis (PH8) at the concentration of 100 ug/mL; + indicates Less than 70% lysis of parasites
# Leishmania donovani [29] = experiment: Tested in vitro for leishmanicidal activity against Leishmania donovani (PP75) at the concentration of 10 ug/mL;++ indicates 80-90% lysis of parasites
# Leishmania amazonensis [30] = experiment: Tested in vitro for leishmanicidal activity against Leishmania amazonensis (PH8) at the concentration of 10 ug/mL; ++ indicates 80-90% lysis of parasites
# Leishmania braziliensis [31] = experiment: Tested in vitro for leishmanicidal activity against Leishmania brasiliensis (2903) at the concentration of 50 ug/mL;+ indicates Less than 70% lysis of parasites
# Leishmania donovani [32] = experiment: Tested in vitro for leishmanicidal activity against Leishmania donovani (PP75) at the concentration of 50 ug/mL;+ indicates Less than 70% lysis of parasites
# Leishmania amazonensis [33] = experiment: Tested in vitro for leishmanicidal activity against Leishmania amazonensis (PH8) at the concentration of 50 ug/mL; + indicates less than 70% lysis of parasites
Compound,Activity (Leishmania donovani [2]),Activity (Leishmania donovani [3]),Activity (Leishmania donovani [4]),Activity (Leishmania donovani [5]),Activity (Leishmania amazonensis [6]),Activity (Leishmania amazonensis [7]),Activity (Leishmania amazonensis [8]),Activity (Leishmania braziliensis [9]),Activity (Leishmania amazonensis [10]),Activity (Leishmania braziliensis [11]),Activity (Leishmania braziliensis [12]),Activity (Leishmania braziliensis [13]),Activity (Leishmania donovani [14]),Activity (Leishmania donovani [15]),Activity (Leishmania donovani [16]),Activity (Leishmania amazonensis [18]),Activity (Leishmania braziliensis [19]),Activity (Leishmania braziliensis [21]),Activity (Leishmania braziliensis [24]),other results
CCCCCCCCCCCCCCC(CNCC)NC(=O)OC(C)(C)C (configuration not stated),80-90% lysis of parasites,80-90% lysis of parasites,80-90% lysis of parasites,+,+,80-90% lysis of parasites,+,+,80-90% lysis of parasites,–,–,–,–,–,–,–,–,–,–,Activity (Leishmania braziliensis [1]): 80-90% lysis of parasites
CCCCCCCCCCCCCCC(=O)NC(CO)CCCCCCCCCCCCCC (configuration not stated),–,–,–,Less than 70% lysis of parasites,–,–,Less than 70% lysis of parasites,–,Less than 70% lysis of parasites,Less than 70% lysis of parasites,Less than 70% lysis of parasites,Less than 70% lysis of parasites,Less than 70% lysis of parasites,Less than 70% lysis of parasites,Less than 70% lysis of parasites,Less than 70% lysis of parasites,Less than 70% lysis of parasites,–,–,Activity (Leishmania amazonensis [17]): Less than 70% lysis of parasites
CCCCCCCCCCCCCCC(=O)NC(CCCCCCCCCCCCCC)COC(=O)CCCCCCCCCCCCCC (configuration not stated),–,–,–,Less than 70% lysis of parasites,–,–,Less than 70% lysis of parasites,–,Less than 70% lysis of parasites,Less than 70% lysis of parasites,Less than 70% lysis of parasites,Less than 70% lysis of parasites,Less than 70% lysis of parasites,Less than 70% lysis of parasites,Less than 70% lysis of parasites,Less than 70% lysis of parasites,Less than 70% lysis of parasites,–,–,Activity (Leishmania amazonensis [17]): Less than 70% lysis of parasites
CCCCCCCCCCCCCCC(N)CNCC (configuration not stated),80-90% lysis of parasites,+,80-90% lysis of parasites,–,+,80-90% lysis of parasites,–,+,80-90% lysis of parasites,–,–,–,–,–,–,–,–,80-90% lysis of parasites,80-90% lysis of parasites,Activity (Leishmania donovani [20]): 80-90% lysis of parasites; Activity (Leishmania braziliensis [22]): 80-90% lysis of parasites; Activity (Leishmania amazonensis [23]): 80-90% lysis of parasites
CCCCCCCCCCCCCCC(N)CNC(=O)CCCC(=O)O (configuration not stated),80-90% lysis of parasites,+,–,+,+,–,+,+,80-90% lysis of parasites,–,–,–,–,–,–,–,–,80-90% lysis of parasites,–,Activity (Leishmania braziliensis [25]): 80-90% lysis of parasites; Activity (Leishmania donovani [26]): 80-90% lysis of parasites; Activity (Leishmania amazonensis [27]): 80-90% lysis of parasites
CCCCCCCCCCCCCCC(N)CN(CC(=O)O)CC(=O)O (configuration not stated),–,+,80-90% lysis of parasites,–,+,80-90% lysis of parasites,–,+,80-90% lysis of parasites,80-90% lysis of parasites,–,–,80-90% lysis of parasites,–,–,–,–,–,80-90% lysis of parasites,Activity (Leishmania donovani [20]): 80-90% lysis of parasites; Activity (Leishmania braziliensis [22]): 80-90% lysis of parasites; Activity (Leishmania amazonensis [23]): 80-90% lysis of parasites
CCCCCCCCCCCCCCC(CNCC(=O)OCC)NC(=O)OC(C)(C)C (configuration not stated),80-90% lysis of parasites,+,80-90% lysis of parasites,–,+,80-90% lysis of parasites,+,+,80-90% lysis of parasites,–,–,–,–,–,–,–,–,80-90% lysis of parasites,80-90% lysis of parasites,Activity (Leishmania donovani [20]): 80-90% lysis of parasites; Activity (Leishmania braziliensis [22]): 80-90% lysis of parasites
CCCCCCCCCCCCCCC(COCc1ccccc1)NC(=O)OC(C)(C)C (configuration not stated),–,–,–,Less than 70% lysis of parasites,–,–,Less than 70% lysis of parasites,–,Less than 70% lysis of parasites,Less than 70% lysis of parasites,Less than 70% lysis of parasites,Less than 70% lysis of parasites,Less than 70% lysis of parasites,Less than 70% lysis of parasites,Less than 70% lysis of parasites,Less than 70% lysis of parasites,Less than 70% lysis of parasites,–,–,Activity (Leishmania amazonensis [28]): Less than 70% lysis of parasites
CCCCCCCCCCCCCCC(CN(CC)CC)NC(=O)OC(C)(C)C (configuration not stated),–,+,–,+,+,–,+,+,–,–,–,–,–,–,–,–,–,–,–,Activity (Leishmania braziliensis [1]): 80-90% lysis of parasites; Activity (Leishmania donovani [29]): 80-90% lysis of parasites; Activity (Leishmania amazonensis [30]): 80-90% lysis of parasites
CCCCCCCCCCCCCCC(N)CNCC(=O)OCC (configuration not stated),Less than 70% lysis of parasites,+,Less than 70% lysis of parasites,–,+,Less than 70% lysis of parasites,–,+,Less than 70% lysis of parasites,–,–,–,–,–,–,–,–,Less than 70% lysis of parasites,Less than 70% lysis of parasites,Activity (Leishmania braziliensis [31]): Less than 70% lysis of parasites; Activity (Leishmania donovani [32]): Less than 70% lysis of parasites; Activity (Leishmania amazonensis [33]): Less than 70% lysis of parasites
CCCCCCCCCCCCCCC(=O)NC(CCCCCCCCCCCCCC)COC(=O)CCCCCC (configuration not stated),–,–,–,Less than 70% lysis of parasites,–,–,Less than 70% lysis of parasites,–,Less than 70% lysis of parasites,Less than 70% lysis of parasites,Less than 70% lysis of parasites,Less than 70% lysis of parasites,Less than 70% lysis of parasites,Less than 70% lysis of parasites,Less than 70% lysis of parasites,Less than 70% lysis of parasites,Less than 70% lysis of parasites,–,–,Activity (Leishmania amazonensis [17]): Less than 70% lysis of parasites
CCCCCCCCCCCCCCC(N)COCc1ccccc1 (configuration not stated),–,–,–,Less than 70% lysis of parasites,–,–,Less than 70% lysis of parasites,–,Less than 70% lysis of parasites,Less than 70% lysis of parasites,Less than 70% lysis of parasites,Less than 70% lysis of parasites,Less than 70% lysis of parasites,Less than 70% lysis of parasites,Less than 70% lysis of parasites,Less than 70% lysis of parasites,Less than 70% lysis of parasites,–,–,Activity (Leishmania amazonensis [28]): Less than 70% lysis of parasites
